Experimental data: PMC7616161 (ACS chemical neuroscience, 2020)
Changes are numbered by the printed parent chain. Blank lines part the entries; values can stand above or below the compound they belong to.

Experiments:
Type in all cases: cell-based
[1] = target: T1, hM1 WT mAChR (M1 muscarinic acetylcholine receptor) (Homo sapiens, UniProt P11229, Y106C/A196G); assay: cell-based
T1 sequence (P11229 1-460 Y106C/A196G): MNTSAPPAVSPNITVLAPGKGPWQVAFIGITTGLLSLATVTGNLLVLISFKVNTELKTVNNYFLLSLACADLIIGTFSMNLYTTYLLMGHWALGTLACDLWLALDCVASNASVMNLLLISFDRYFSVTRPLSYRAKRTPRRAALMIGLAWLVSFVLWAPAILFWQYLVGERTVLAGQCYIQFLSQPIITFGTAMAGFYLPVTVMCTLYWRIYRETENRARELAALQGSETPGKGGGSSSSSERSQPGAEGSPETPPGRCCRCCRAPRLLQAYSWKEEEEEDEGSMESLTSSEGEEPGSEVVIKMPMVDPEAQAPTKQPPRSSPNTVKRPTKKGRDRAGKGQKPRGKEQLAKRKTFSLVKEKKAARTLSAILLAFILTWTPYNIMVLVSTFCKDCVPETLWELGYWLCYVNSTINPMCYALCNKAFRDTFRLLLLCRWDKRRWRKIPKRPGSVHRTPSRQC

[2] = target: T2, hM1 WT mAChR (M1 muscarinic acetylcholine receptor) (Homo sapiens, UniProt P11229); assay: cell-based
T2 sequence (P11229 1-460): T1 sequence (P11229 1-460 Y106C/A196G) with C106Y, G196A

[3] = target: T2, hM1 WT mAChR (M1 muscarinic acetylcholine receptor); assay: IP1 accumulation; settings: for pEC50^b / IP1 / M1WT: […] h, […] °C, pH […]
[4] = target: T3, hM1 WT mAChR (M1 muscarinic acetylcholine receptor) (Homo sapiens, UniProt P11229, A196G/Y106C); assay: whole-cell [3H]NMS inhibition binding, allosteric ternary complex model
T3 sequence (P11229 1-460 Y106C/A196G): T1 sequence (P11229 1-460 Y106C/A196G)

[5] = target: T2, hM1 WT mAChR (M1 muscarinic acetylcholine receptor); assay: as above
[6] = target: T1, hM1 WT mAChR (M1 muscarinic acetylcholine receptor); assay: as above; settings: M1 DREADD, printed as Y3.[…] and A5.[…]; HBSS, […] HEPES pH […]; allosteric
[7] = target: T3, hM1 WT mAChR (M1 muscarinic acetylcholine receptor); assay: cell-based
[8] = target: T3, hM1 WT mAChR (M1 muscarinic acetylcholine receptor); assay: IP1 accumulation

SMILES: O=C1CCCN1CC#CCN1CCCC1 [oxotremorine]
pKI^b (nH)^c / M1DREADD [1]: 4.3 ± 0.05
pKI^b (nH)^c / M1WT [2]: 6.0 ± 0.04
pEC50^b / IP1 / M1WT ([3]; orthosteric agonist): 7.68 ± 0.12

Ki [4]: 5010 nM
Ki [5]: 501 nM
EC50 [3]: 12.9 nM
SMILES: Cc1cnc(C(=O)N[C@H]2CCOC[C@@H]2O)cc1Cc1ccc(-c2cscn2)cc1 [PF-06767832, N-((3R,4S)-3-hydroxytetrahydro-2H-pyran-4-yl)-5-methyl-4-(4-(thiazol-4-yl)benzyl)pyridine-2-carboxamide]

pKI^b (nH)^c / M1DREADD [6]: 5.3 ± 0.09
pKI^b (nH)^c / M1WT ([5]; HBSS, […] HEPES pH […], allosteric): 6.0 ± 0.10
pEC50^b / IP1 / M1WT ([3]; allosteric agonist, no ACh added): 6.86 ± 0.19
SMILES: Cn1cc(-c2ccc(COc3ccccc3-c3cc(=O)n(C4CCCCC4O)cn3)cc2)cn1 (stereo not drawn) [MIPS1780, 3-(2-hydroxycyclohexyl)-6-(2-((4-(1-methyl-1H-pyrazol-4-yl)-benzyl)oxy)phenyl)-pyrimidin-4(3H)-one]

Ki [4]: 25100 nM
Ki [5]: 794 nM
EC50 [3]: 372 nM
SMILES: O=C(N[C@H]1CCCC[C@@H]1O)[C@H]1CN(Cc2ccc(-n3cccn3)cc2)c2ccccc2O1 [VU0486846, (2R)-N-[(1S,2S)-2-hydroxycyclohexyl]-4-[(4-pyrazol-1-ylphenyl)-methyl]-2,3-dihydro-1,4-benzoxazine-2-carboxamide]

Ki [7]: 126 nM
EC50 [8]: 5.37 nM
Ki [2]: 12600 nM
SMILES: C[N+]1([O-])CCN(C2=Nc3cc(Cl)ccc3Nc3ccccc32)CC1 [CNO]
